Source: patent US6489299B2, “Methods for treatment of multiple sclerosis using peptide analogues at position 91 of human myelin basic protein” (Stanford University Medical Center, priority 1994, dated 2002)
Where two headings read alike, the source gives them in different places.

Legend:
[1] = tested on: lymph node cells (LNC) reactive to MBP (87-99); test: Antigen-specific lymph node cell proliferation assay; assay type: cell-based, Lewis rat; details: 10 μM peptide, 3 days, [3H]-thymidine; FIG. 4
Protocol: FIG. 4 is a graph displaying the proliferative response of MBP-reactive lymph node cells to position 91-substituted analogues. Two different substitutions were tested. The proliferative response of lymph node cells to 10 μM of MBP (87-99), motilin, A91 or K91 was determined. Proliferation is shown as counts per minute. BKG, no peptide added; 87-99, MBP (87-99); motilin, an unrelated peptide; A91, peptide analogue with alanine at position 91; K91, peptide analogue with D-lysine at position 91.
As an alternative to the use of T cell lines as described above, draining lymph node cells from Lewis rats immunized with MBP (87-99) may be used. […] Cultures are harvested on fiberglass filters and counted in a scintillation counter. Mean CPM and the standard error of the mean are calculated from data determined in triplicate cultures. […]
For the assay, 100 μl of the lymph node suspension was added to 96-well flat-bottom wells in the presence of an equal volume of medium containing 10 μM of various peptides (including: motilin as a negative control; MBP87-99; medium only, or alanine or D-amino acid substituted at position 91). […] The plates were then harvested with a Matrix filtermate harvester (Packard) and counted using an Automatic Direct Beta Counter (Packard). Mean cpm and the standard error of the mean were calculated from triplicate wells.

[2] = tested on: anti MBP (87-99) T cell line L87-99; assay type: cell-based, rat; details: all concentrations, 10^-4 μM to 10^-2 μM analogue; APC prepulsed with 0.2 μM native peptide; FIG. 5
Protocol: FIG. 5 is a graph illustrating the ability of alanine-substituted analogues to antagonize T cells. […] Results are shown as stimulation index ±SE.
The second or alternative assay is a competition assay for T cell proliferation. In this assay, antigen presenting spleen cells are first irradiated and then incubated with native MBP (87-99) peptide for 2-4 hours. These cells are then washed and further cultured with T cells reactive to MBP (87-99). Various concentrations of candidate peptide analogues are included in cultures for an additional 3 days. Following this incubation period, each culture is pulsed with 1 μCi of [^3H]-thymidine for an additional 12-18 hours. Cultures are then harvested on fiberglass filters and counted as above. Mean CPM and standard error of the mean are calculated from data determined in triplicate cultures. Peptide analogues which inhibit proliferation to approximately 25% at a concentration of 50 μM or greater are suitable for further screening.
T cell antagonism was detected in a prepulsed proliferation assay as described by De Magistris et al. (Cell […]:625, 1992) with minor modifications. […] The cultures were then harvested on fiberglass filters and the proliferative response expressed as CPM±SD or as stimulation index (mean CPM from test cultures divided by mean CPM from control cultures).

EAE [3] = test: Reversal of EAE induced by adoptive transfer of L87-99 T cells; assay type: in vivo, rat
EAE [4] = details: rat, in vivo
Protocol: In addition, as a safety measure, but not essential to this invention, suitable peptide analogues may be tested for direct induction of EAE. As described in detail in Example 2, various amounts of peptide analogues are injected at the base of the tail of rats, and the rats examined daily for signs of EAE. A peptide analogue which is not considered to cause EAE has a mean cumulative score of less than or equal to 1 over seven days when 1 mg (5 mg/kg) in complete Freund's adjuvant is injected.
MBP peptides and analogues were dissolved in phosphate-buffered saline (PBS) and emulsified with an equal volume of incomplete Freund's adjuvant supplemented with 4 mg/ml heat-killed Mycobacterium tuberculosis H37Ra in oil (Difco Laboratories, Inc., Detroit, Mich.). Rats were immunized subcutaneously in the hind foot pads with 0.1 ml of the emulsion and were monitored for clinical signs daily by an observer blind to the treatment protocol. For intravenous injections MBP peptides and analogues were dissolved in normal saline. EAE was scored as follows: 0, clinically normal; 1, flaccid tail; 2, hind limb paralysis; 3, front and hind limb paralysis.
The ability of peptide analogues to cause EAE is assessed in vivo. Rats were injected with MBP (87-99) or (91K>A) peptide analogue as described in Example 2. Animals were monitored daily for evidence of EAE. Rats receiving MBP (87-99) had 100% incidence (18/18 rats) of EAE with a mean maximum clinical score of 2.4±0.2. In contrast, 0/12 rats receiving the peptide analogue (91k>A) had EAE.

EAE [5] = test: Prevention of EAE by co-injection of the peptide analogue with an EAE-inducing peptide; assay type: in vivo, rat
[6] = tested on: TNF-α production from draining lymph node cells; test: TNF-α production by draining lymph node cells (ELISA); assay type: cell-based, rat; details: all doses greater than 20 μM; supernatant after 24 hours; FIG. 7
Protocol: (§1) FIG. 7 are a pair of graphs showing the amount of IFN-γ and TNF-α production from draining lymph node cells (DLNC). DLNC were stimulated with MBP (87-99) alone (●) or with the peptide analogue (91K>A) (▪).
(§2) Cytokine production in draining lymph node cells from rats injected with MBP (87-99) alone or with the peptide analogue (91K>A) was determined. IFN-γ and TNF-α production were measured.
(§3) Draining lymph node cells (10^7 cells/ml) were stimulated in vitro with different concentrations of MBP (87-99) or peptide analogue. Supernatants were collected after 24 and 48 hours. IFN-γ was determined after 48 hours by use of a rat IFN-γ ELISA kit (GIBCO BRL). TNF-α was measured after 24 hours by ELISA kit (Genzyme Corp., Cambridge, Mass.).

[7] = tested on: IFN-γ production from draining lymph node cells; test: IFN-γ production by draining lymph node cells (ELISA); assay type: cell-based, rat; details: all doses; supernatant after 48 hours; FIG. 7
Protocol: as §1, §2, §3

[8] = as Peptide 2, co-injected with Peptide 1 MBP(68-88), ratio 1:1
[9] = as Peptide 2, co-injected with Peptide 1 MBP(87-99), ratio 1:1, in complete Freund's adjuvant

Structure (SMILES): CC[C@H](C)[C@H](NC(=O)[C@H](CC(N)=O)NC(=O)[C@H](C)NC(=O)[C@H](Cc1ccccc1)NC(=O)[C@H](Cc1ccccc1)NC(=O)[C@H](Cc1c[nH]cn1)NC(=O)[C@@H](N)C(C)C)C(=O)N[C@H](C(=O)N[C@H](C(=O)N1CCC[C@H]1C(=O)N[C@@H](CCCNC(=N)N)C(=O)N[C@H](C(=O)N1CCC[C@H]1C(=O)O)[C@@H](C)O)[C@@H](C)O)C(C)C [91K>A]
- proliferative response of MBP (87-99)-reactive lymph node cells (in words) [1]: failed to respond as well
- antagonism of the response of L87-99 to native peptide (in words) [2]: effectively antagonize
- time to complete remission (EAE [3]; after single injection (2 mg/ml) of soluble analogue): ≤ 36 h
- rats going into complete remission without further signs of paralysis (EAE [3]; single injection (2 mg/ml) of soluble analogue to rats with hind limb paralysis, 5 days after 10^7 L87-99 T cells, p<0.015): six out of six
- EAE Incidence (EAE [4]): 0/12
- EAE Mean Maximum Clinical Score (EAE [4]): 0
- incidence of EAE (rats with EAE / rats injected) (EAE [4]): 0/12
- EAE Incidence (EAE [5]; [8]): 6/6
- EAE Mean Maximum Clinical Score (EAE [5]; [8]): 3 ± 0
- EAE Incidence (EAE [5]; [9]): 0/12
- EAE Mean Maximum Clinical Score (EAE [5]; [9]): 0
- inhibition of induction of EAE by MBP (68-88) (in words) (EAE [5]; co-immunization): not inhibit induction of EAE
- inhibition of induction of EAE by MBP (87-99) (in words) (EAE [5]; co-immunization): could specifically inhibit induction of EAE
- TNF-α production (in words) [6]: marked decrease in cytokine production
- IFN-γ production (in words) [7]: marked decrease in cytokine production
